Data set [1] is classed as physicochemical. The settings on record: for impurities: four weeks. The text has this:
A solution must be stable for commercially reasonable periods. […] In experimenting with buffering agents such as tartrate and citrate, precipitation of dasotraline HCl was discovered.

Data set [2] is classed as physicochemical. The text has this:
In addition to chemical/physical stability, the formulation must remain free of microbial growth for commercially reasonable periods. Several common preservatives failed when combined with dasotraline HCl and malate buffer.

The next data set is described as follows: physchem. Format: physicochemical. An excerpt: To make a solution, one must attain sufficient solubility to achieve efficacious levels of an active pharmaceutical ingredient (API) while avoiding precipitation.
For data set [3] the following is noted: capsule, doses of 1 to 8 mg, adult or adolescent; cited from earlier work.

Each structure is given as a SMILES string. Counter-ions that a name gives are not always drawn. Like-named read-outs stand apart in the source and are kept apart here.

The values that follow come from patent publication US20200405867A1, “ORAL DOSAGE FORMS” (Sunovion Pharmaceuticals Inc., priority 2018, published 2020).

A word on the solubility: it is the concentration that dissolves in the medium under given conditions.

With `N[C@@H]1CC[C@@H](c2ccc(Cl)c(Cl)c2)c2ccccc21` [dasotraline HCl], the impurities result was “no detectable impurities” in data set [1] (10 mM malate buffer, pH≤3.5, 60° C.); > 0.1% in data set [1] (higher (25 mM) malate buffer amount, pH>3, 60° C.); > 0.1% in data set [2] (malate buffer, 5% propylene glycol, further stress beyond four weeks at 60° C.). The “physical stability of solution” value in data set [1] (pH 3) was “precipitation”; in data set [1] (pH 3.5), “precipitation”; in data set [1] (pH 5), “precipitation”; in data set [2], “induced precipitation”. Moreover, the stability of solution result was “stable solution under all conditions tested” in data set [2] and “effective up to four weeks at 60 °C” in data set [2] (4 weeks). Besides, the “pH window of maximal solubility in water” value in “physchem” was 2.0-3.0 pH. Further, the solubility stood at 1900 µg/mL in the data set “physchem” (pH 2.2, aqueous buffer); 2200 µg/mL in “physchem” (pH 2.7, aqueous buffer); 2100 µg/mL in the data set “physchem” (pH 3, aqueous buffer); 1300 µg/mL in the data set “physchem” (pH 3.4, aqueous buffer); 800 µg/mL in “physchem” (pH 3.9, aqueous buffer); 600 µg/mL in “physchem” (pH 4.4, aqueous buffer). This compound displayed a solubility in the data set “physchem” (pH 4.9, aqueous buffer) of 400 µg/mL.
Take `N[C@@H]1CC[C@@H](c2ccc(Cl)c(Cl)c2)c2ccccc21` [dasotraline, (1R,4S)-4-(3,4-dichlorophenyl)-1,2,3,4-tetrahydronaphthalen-1-amine]: in data set [3], the abuse liability result is “no detectable abuse liability” and the “efficacy in treating ADHD” value is “effective in treating ADHD”.
